This experiment has as its target T1, Tyrosine-protein kinase receptor UFO (Homo sapiens, UniProt P30530).
T1 sequence (P30530 whole entry): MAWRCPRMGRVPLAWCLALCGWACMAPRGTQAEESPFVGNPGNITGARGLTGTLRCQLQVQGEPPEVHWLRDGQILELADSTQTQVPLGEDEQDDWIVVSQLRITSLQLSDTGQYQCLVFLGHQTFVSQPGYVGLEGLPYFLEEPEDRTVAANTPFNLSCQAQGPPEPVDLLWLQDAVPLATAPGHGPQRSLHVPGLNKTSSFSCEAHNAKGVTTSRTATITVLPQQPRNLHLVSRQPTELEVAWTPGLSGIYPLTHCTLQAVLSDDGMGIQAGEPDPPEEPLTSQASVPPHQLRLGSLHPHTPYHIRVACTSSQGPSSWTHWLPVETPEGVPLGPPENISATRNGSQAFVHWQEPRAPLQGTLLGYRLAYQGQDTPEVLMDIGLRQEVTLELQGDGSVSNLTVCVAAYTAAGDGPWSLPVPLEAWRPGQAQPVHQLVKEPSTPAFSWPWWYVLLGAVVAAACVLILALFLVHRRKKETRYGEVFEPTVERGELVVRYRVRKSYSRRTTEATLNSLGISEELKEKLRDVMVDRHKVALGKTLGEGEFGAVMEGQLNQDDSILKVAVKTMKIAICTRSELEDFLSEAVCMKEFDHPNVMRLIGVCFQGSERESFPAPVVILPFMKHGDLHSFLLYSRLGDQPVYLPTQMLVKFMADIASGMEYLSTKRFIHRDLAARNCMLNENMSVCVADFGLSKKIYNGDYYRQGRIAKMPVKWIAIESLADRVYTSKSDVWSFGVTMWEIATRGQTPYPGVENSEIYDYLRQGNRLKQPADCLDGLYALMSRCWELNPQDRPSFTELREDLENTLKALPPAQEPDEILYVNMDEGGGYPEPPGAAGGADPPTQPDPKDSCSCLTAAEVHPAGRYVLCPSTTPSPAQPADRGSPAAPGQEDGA
In words: Inhibition of AXL (unknown origin).

As usually defined, the IC50 is the concentration that gives 50% inhibition. Higher therefore signals weaker potency. As to `COc1cc2ncnc(Oc3ccc(NC(=O)c4c5n(n(-c6ccccc6)c4=O)CCCC5)cc3)c2cc1OC`, the IC50 worked out at 44 nM.

(Values after BindingDB's records for PubMed 38714043 (Sichuan University).)
